Common to all, as to format: cell-based, human
One data set relates to A-375 cell line. In words: MTT assay, melanoma A-375 cell line. As to conditions: for IC50: Homo sapiens, A-375, 48 h, read-out: IC50 against A375; for Viability of A375 (in words): 15.62–500 μM, Fig. 6A. In general terms: Tetrazolium dyes change colour on reduction, which living cells bring about.
A further data set deals with HEK-293 cell line. In words: MTT assay, toxicity on normal cell line HEK-293. As to conditions: for Viability of HEK-293 (in words): 15.62–500 μM; for IC50: Homo sapiens, HEK293, 48 h, read-out: IC50 against HEK-293.
For another data set, the system named is MCF-7 cell line. The experiment in a line: MTT assay, breast cancer MCF-7 cell line. As to conditions: for IC50: Homo sapiens, MCF7, 48 h, read-out: IC50 against MCF-7; for Activity against MCF-7 compared to MTX (in words): MTT assay; for times greater efficacy than MTX against MCF-7: ratio to MTX IC50.

Molecules are shown by their SMILES.

On to `Cn1c(=O)c2c(nc(Oc3ccc(/C=C/C(=O)c4ccc(Cl)cc4)cc3)n2C)n(C)c1=O` [Compound 5f, (E)-8-(4-(3-(4-Chlorophenyl)-3-oxoprop-1-enyl)phenoxy)-1,3,7-trimethyl-1H-purine-2,6(3H,7H)-dione], for which the figures for the concentration for half-maximal inhibition (IC50) in the data set on A-375 cell line, with HEK-293 cell line and in the data set on MCF-7 cell line were 368 ± 3.1 µM, 240 ± 3.7 µM and 130 ± 3.4 µM, respectively. For the same compound, the “Viability of HEK-293 (in words)” value in the data set with HEK-293 cell line (Fig. 6C) was “more toxic”.
As for `CN(Cc1cnc2nc(N)nc(N)c2n1)c1ccc(C(=O)N[C@@H](CCC(=O)O)C(=O)O)cc1` [MTX, methotrexate, reference compound], the half-maximal inhibitory concentration (IC50) (commonly the concentration needed to halve the response being measured) with A-375 cell line is 418 ± 2 µM; in the data set on HEK-293 cell line it was 199 ± 2.4 µM; with MCF-7 cell line, 343 ± 3.6 µM. In addition, the “Toxicity against HEK-293 at 500 μM (in words)” value with HEK-293 cell line (500 μM, Fig. 6C) is listed as “highest toxicity”.
For the compound `Cn1c(=O)c2c(nc(Oc3ccc(C(=O)/C=C/c4ccc(Cl)cc4)cc3)n2C)n(C)c1=O` [Compound 4e, (E)-8-(4-(3-(4-Chlorophenyl)acryloyl)phenoxy)-1,3,7-trimethyl-1H-purine-2,6(3H,7H)-dione], the half-inhibitory concentration (IC50) with A-375 cell line amounted to 273 ± 3.4 µM. Besides, the IC50 in the data set with HEK-293 cell line was 386 ± 3.2 µM. Besides, in the data set with MCF-7 cell line, the IC50 turned out to be 35 ± 2.2 µM, the “Activity against MCF-7 compared to MTX (in words)” value is reported as “activities surpassing that of MTX” and the “times greater efficacy than MTX against MCF-7” value (“times greater efficacy than MTX” below) is about 10 times.
Consider `COc1ccc(/C=C/C(=O)c2ccc(Oc3nc4c(c(=O)n(C)c(=O)n4C)n3C)cc2)cc1` [Compound 4h, (E)-8-(4-(3-(4-Methoxyphenyl)acryloyl)phenoxy)-1,3,7-trimethyl-1H-purine-2,6(3H,7H)-dione], for which the 50% inhibitory concentration (IC50) with A-375 cell line, in the data set on HEK-293 cell line and in the data set with MCF-7 cell line was over 500 µM in each case.
Regarding `COc1ccc(C(=O)/C=C/c2ccc(Oc3nc4c(c(=O)n(C)c(=O)n4C)n3C)cc2)cc1` [Compound 5a, (E)-8-(4-(3-(4-Methoxyphenyl)-3-oxoprop-1-enyl)phenoxy)-1,3,7-trimethyl-1H-purine-2,6(3H,7H)-dione], the IC50 in the data set on A-375 cell line was 249 ± 3.6 µM; in the data set with HEK-293 cell line it was over 500 µM; in the data set with MCF-7 cell line it was 249 ± 3.2 µM.
The corresponding values for `COc1ccc(/C=C/C(=O)c2ccc(Oc3nc4c(c(=O)n(C)c(=O)n4C)n3C)cc2)c(OC)c1` [Compound 4g, (E)-8-(4-(3-(2,4-Dimethoxyphenyl)acryloyl)phenoxy)-1,3,7-trimethyl-1H-purine-2,6(3H,7H)-dione] are 425 ± 3.5 µM, over 500 µM and over 500 µM.
Turning to `COC(=O)c1ccc(/C=C/C(=O)c2ccc(Oc3nc4c(c(=O)n(C)c(=O)n4C)n3C)cc2)cc1` [Compound 4k, (E)-Methyl 4-(3-oxo-3-(4-(1,3,7-trimethyl-2,6-dioxo-2,3,6,7-tetrahydro-1H-purin-8-yloxy)phenyl)prop-1-enyl)benzoate], in the data set with A-375 cell line, the “Viability of A375 (in words)” value was “lowest viability values” and the IC50 was 92 ± 3.2 µM. Further, the “Viability of HEK-293 (in words)” value in the data set on HEK-293 cell line (Fig. 6C) was “highest toxicity and lowest viability”. In addition, the IC50 in the data set on HEK-293 cell line was 99 ± 3 µM. In addition, the “Toxicity to HEK-293 compared to MTX (in words)” value with HEK-293 cell line (MTT assay) is “more toxic”. For the same compound, the “Toxicity to HEK-293 cells (in words)” value in the data set with HEK-293 cell line (MTT assay, normal cell line) is given as “most toxic”. The “Viability of MCF-7 (in words)” value with MCF-7 cell line (15.62–500 μM, Fig. 6B) is “lowest viability rate”. In addition, in the data set on MCF-7 cell line, the IC50 was 34 ± 3.5 µM, the “Activity against MCF-7 compared to MTX (in words)” value is reported as “activities surpassing that of MTX” and the “times greater efficacy than MTX” value is reported as about 10 times.
As to `Cn1c(=O)c2c(nc(Oc3ccc(/C=C/C(=O)c4ccc([N+](=O)[O-])cc4)cc3)n2C)n(C)c1=O` [Compound 5b, (E)-1,3,7-Trimethyl-8-(4-(3-(4-nitrophenyl)-3-oxoprop-1-enyl)phenoxy)-1H-purine-2,6(3H,7H)-dione], the half-inhibitory concentration (IC50) in the data set on A-375 cell line amounted to 275 ± 3.7 µM; in the data set on HEK-293 cell line it was 419 ± 4.6 µM; with MCF-7 cell line, 223 ± 3.7 µM.
Turning to `Cc1ccc(/C=C/C(=O)c2ccc(Oc3nc4c(c(=O)n(C)c(=O)n4C)n3C)cc2)cc1` [Compound 4a, (E)-1,3,7-Trimethyl-8-(4-(3-p-tolylacryloyl)phenoxy)-1H-purine-2,6(3H,7H)-dione], the IC50 is 279 ± 2.3 µM in the data set with A-375 cell line, 407 ± 3.1 µM with HEK-293 cell line and 38 ± 3.7 µM in the data set with MCF-7 cell line. Moreover, the “Activity against MCF-7 compared to MTX (in words)” value in the data set with MCF-7 cell line is “activities surpassing that of MTX”.
On to `Cn1c(=O)c2c(nc(Oc3ccc(C(=O)/C=C/c4ccccc4Cl)cc3)n2C)n(C)c1=O` [Compound 4i, (E)-8-(4-(3-(2-Chlorophenyl)acryloyl)phenoxy)-1,3,7-trimethyl-1H-purine-2,6(3H,7H)-dione], for which the “Viability of A375 (in words)” value with A-375 cell line is “lowest viability values”. Moreover, the IC50 in the data set on A-375 cell line was 111 ± 1.9 µM; with HEK-293 cell line, 162 ± 4.2 µM; in the data set on MCF-7 cell line, 108 ± 3.1 µM. Moreover, the “Viability of HEK-293 (in words)” value in the data set with HEK-293 cell line (Fig. 6C) is recorded as “more toxic”. Further, the “Toxicity to HEK-293 compared to MTX (in words)” value in the data set on HEK-293 cell line (MTT assay) is “more toxic”.
Turning to `Cn1c(=O)c2c(nc(Oc3ccc(C(=O)/C=C/c4ccccc4)cc3)n2C)n(C)c1=O` [Compound 4d, (E)-8-(4-Cinnamoylphenoxy)-1,3,7-trimethyl-1H-purine-2,6(3H,7H) dione], the concentration for half-maximal inhibition (IC50) in the data set on A-375 cell line came out at 157 ± 4.2 µM. Moreover, the IC50 in the data set with HEK-293 cell line was found to be 220 ± 3.4 µM. In the data set with MCF-7 cell line, the IC50 is 18 ± 1.9 µM, the “Activity against MCF-7 compared to MTX (in words)” value was “activities surpassing that of MTX” and the “times greater efficacy than MTX” value is listed as about 19 times.
Take `Cn1c(=O)c2c(nc(Oc3ccc(/C=C/C(=O)c4cccc([N+](=O)[O-])c4)cc3)n2C)n(C)c1=O` [Compound 5c, (E)-1,3,7-Trimethyl-8-(4-(3-(3-nitrophenyl)-3-oxoprop-1-enyl)phenoxy)-1H-purine-2,6(3H,7H)-dione]: the IC50 with A-375 cell line, in the data set with HEK-293 cell line and with MCF-7 cell line was over 500 µM in each case.
Consider `COc1ccccc1/C=C/C(=O)c1ccc(Oc2nc3c(c(=O)n(C)c(=O)n3C)n2C)cc1` [Compound 4c, (E)-8-(4-(3-(2-Methoxyphenyl)acryloyl)phenoxy)-1,3,7-trimethyl-1H-purine-2,6(3H,7H)-dione], for which the 50% inhibitory concentration (IC50) was determined as 325 ± 3.8 µM in the data set on A-375 cell line, 451 ± 2.4 µM in the data set on HEK-293 cell line and 269 ± 4.5 µM with MCF-7 cell line.
The corresponding values for `Cn1c(=O)c2c(nc(Oc3ccc(C(=O)/C=C/c4cccc([N+](=O)[O-])c4)cc3)n2C)n(C)c1=O` [Compound 4f, (E)-1,3,7-Trimethyl-8-(4-(3-(3-nitrophenyl)acryloyl)phenoxy)-1H-purine-2,6(3H,7H)-dione] are over 500 µM, over 500 µM and over 500 µM.
The corresponding values for `Cn1c(=O)c2c(nc(Oc3ccc(/C=C/C(=O)c4ccc5ccccc5c4)cc3)n2C)n(C)c1=O` [Compound 5e, (E)-1,3,7-Trimethyl-8-(4-(3-(naphthalen-2-yl)-3-oxoprop-1-enyl)phenoxy)-1H-purine-2,6(3H,7H)-dione] are over 500 µM, over 500 µM and 333 ± 2.5 µM.
The corresponding values for `Cc1ccc(C(=O)/C=C/c2ccc(Oc3nc4c(c(=O)n(C)c(=O)n4C)n3C)cc2)cc1` [Compound 5d, (E)-1,3,7-Trimethyl-8-(4-(3-oxo-3-p-tolylprop-1-enyl)phenoxy)-1H-purine-2,6(3H,7H)-dione] are over 500 µM, over 500 µM and over 500 µM.
On to `Cn1c(=O)c2c(nc(Oc3ccc(C(=O)/C=C/c4ccc(Cl)cc4Cl)cc3)n2C)n(C)c1=O` [Compound 4b, (E)-8-(4-(3-(2,4-Dichlorophenyl)acryloyl)phenoxy)-1,3,7-trimethyl-1H-purine-2,6(3H,7H)-dione], for which the IC50 in the data set on A-375 cell line amounted to 325 ± 3.1 µM; in the data set on HEK-293 cell line it was 347 ± 4.2 µM; with MCF-7 cell line, 230 ± 3.2 µM.
For `Cn1c(=O)c2c(nc(Oc3ccc(C(=O)/C=C/c4c(Cl)cccc4Cl)cc3)n2C)n(C)c1=O` [Compound 4j, (E)-8-(4-(3-(2,6-Dichlorophenyl)acryloyl)phenoxy)-1,3,7-trimethyl-1H-purine-2,6(3H,7H)-dione], the IC50 worked out at 200 ± 4.3 µM with A-375 cell line, 214 ± 4.3 µM in the data set on HEK-293 cell line and 181 ± 3.1 µM in the data set with MCF-7 cell line.
